The target of the experiment is human ENPP2 (Homo sapiens (Human), UniProt Q13822). As to the kind of experiment: Inhibitory activity on human ENPP2 (FS-3 assay). In kind it is biochemical. Particulars: human ENPP2, FS-3 substrate, 30 min at 37° C.; read-out: IC50. Here is the method:
Two-fold dilution of each test compound solution (10 μM, 100% dimethyl sulfoxide) is carried out on 96-well V bottom plate (Costar 3363). After ten-fold dilution of each the test compound solution (100% dimethyl sulfoxide) with deionized distilled water, 10 μL of the diluted each mpound solution (10% dimethyl sulfoxide) was aliquoted to a black flat bottom 96-well plate (Costar 3915).

Consider `O=C(CCN1CCN(c2cnc(NC3Cc4ccccc4C3)nc2)CC1)N1CCc2[nH]nnc2C1` [Compound 23], for which the IC50 (as a rule, the point on the concentration scale where inhibition reaches its midpoint) was 6.8 nM.

As for `O=c1[nH]c2ccc(/C(CN3CCN(c4cnc(NC5Cc6ccccc6C5)nc4)CC3)=N\O)cc2o1` [Compound 29, 6-[(1E)-2-(4-{2-[(2,3-dihydro-1H-inden-2-yl)amino]pyrimidin-5-yl}piperazin-1-yl)-1-(hydroxyimino)ethyl]-2,3-dihydro-1,3-benzoxazol-2-one], the IC50 turned out to be 3.9 nM.

`O=C(c1cnc(NCc2cccc(OC(F)(F)F)c2)nc1)N1CCC2(CC1)CC(CN1CCc3[nH]nnc3C1)=NO2` [Compound 8, 5-(3-{1H,4H,5H,6H,7H-[1,2,3]triazolo[4,5-c]pyridin-5-ylmethyl}-1-oxa-2,8-diazaspiro[4,5]dec-2-ene-8-carbonyl)-N-{[3-(trifluoromethoxy)phenyl]methyl}pyrimidin-2-amine]: the IC50 turned out to be 3.5 nM.

As to `CCN1CCN(Cc2nn(CC(=O)N3CCc4[nH]nnc4C3)cc2-c2cnc(NC3Cc4ccccc4C3)nc2)CC1` [Compound 91, 2-(4-{2-[(2,3-dihydro-1H-inden-2-yl)amino]pyrimidin-5-yl}-3-[(4-ethylpiperazin-1-yl)methyl]-1H-pyrazol-1-yl)-1-{1H,4H,5H,6H,7H-[1,2,3]triazolo[4,5-c]pyridin-5-yl}ethan-1-one], the IC50 worked out at 2.4 nM.

With `O=C(CCc1ccc2[nH]c(=O)oc2c1)N1CCC(c2cnc(NC3Cc4ccccc4C3)nc2)CC1` [Compound 16, 6-[3-(4-{2-[(2,3-dihydro-1H-inden-2-yl)amino]pyrimidin-5-yl}piperidin-1-yl)-3-oxopropyl]-2,3-dihydro-1,3-benzoxazol-2-one], the IC50 was 2.2 nM.

Take `O=C(Cc1nnc(-c2ccc(NC3Cc4ccccc4C3)nc2)o1)N1CCc2[nH]nnc2C1` [Compound 36, 2-(5-{6-[(2,3-dihydro-1H-inden-2-yl)amino]pyridin-3-yl}-1,3,4-oxadiazol-2-yl)-1-{1H,4H,5H,6H,7H-[1,2,3]triazolo[4,5-c]pyridin-5-yl}ethan-1-one]: the IC50 was 2.9 nM.

On to `O=C(CN1CCN(c2cnc(NCc3cccc(OC(F)(F)F)c3)nc2)CC1)N1CCc2[nH]nnc2C1` [Compound 21, 1-{1H,4H,5H,6H,7H-[1,2,3]triazolo[4,5-c]pyridin-5-yl}-2-{4-[2-({[3-(trifluoromethoxy)phenyl]methyl}amino)pyrimidin-5-yl]piperazin-1-yl}ethan-1-one], for which the IC50 was 4.1 nM.

Regarding `O=C(CN1CCc2[nH]nnc2C1)N1CCN(c2cnc(NCc3cccc(OC(F)(F)F)c3)nc2)CC1` [Compound 18], the IC50 is 3.6 nM.

Consider `O=C(CN1CCc2[nH]nnc2C1)N1CCN(c2cnc(NC3Cc4ccccc4C3)nc2)CC1` [Compound 17, 1-(4-{2-[(2,3-dihydro-1H-inden-2-yl)amino]pyrimidin-5-yl}piperazin-1-yl)-2-{1H,4H,5H,6H,7H-[1,2,3]triazolo[4,5-c]pyridin-5-yl}ethan-1-one], for which the IC50 was 3.4 nM.

For `O=c1[nH]c2ccc(C3=NOC(CN4CCN(c5cnc(NC6Cc7ccccc7C6)nc5)CC4)C3)cc2o1` (stereo not drawn) [Compound 31, 6-{5-[(4-{2-[(2,3-dihydro-1H-inden-2-yl)amino]pyrimidin-5-yl}piperazin-1-yl)methyl]-4,5-dihydro-1,2-oxazol-3-yl}-2,3-dihydro-1,3-benzoxazol-2-one], the IC50 was 11.8 nM.

As to `CCc1nn(CC(=O)N2CCN(C(=O)CO)CC2)cc1-c1cnc(NC2Cc3ccccc3C2)nc1` [Compound 94, 1-{4-[2-(4-{2-[(2,3-dihydro-1H-inden-2-yl)amino]pyrimidin-5-yl}-3-ethyl-1H-pyrazol-1-yl)acetyl]piperazin-1-yl}-2-hydroxyethan-1-one], the IC50 came to 2.3 nM.

Regarding `Nc1nc2c(s1)CCN(C(=O)Cc1nnc(-c3cnc(NC4Cc5ccccc5C4)nc3)o1)C2` [Compound 43, 1-{2-amino-4H,5H,6H,7H-[1,3]thiazolo[4,5-c]pyridin-5-yl}-2-(5-{2-[(2,3-dihydro-1H-inden-2-yl)amino]pyrimidin-5-yl}-1,3,4-oxadiazol-2-yl)ethan-1-one], the IC50 is 11.2 nM.

For the origin of these results see patent US10961242B2, “Compounds as autotaxin inhibitors and pharmaceutical compositions comprising the same” (LegoChem Biosciences, Inc., priority 2018, dated 2021).
